# According to publication PMC12055641, “The Study of Antistaphylococcal Potential of Omiganan and Retro-Omiganan Under Flow Conditions” (Probiotics and Antimicrobial Proteins, 2024):
# No end group written: not given here.
# Key:
# S. aureus ATCC 25923 [1] = experiment: microbe, parasite or virus in culture
# Description: (§1) Clinical S. aureus strains were collected from patients with atopic dermatitis during their visits to the Outpatient Clinic and hospitalization in the Department of Dermatology, Venereology and Allergology at Medical University of Gdańsk (following the approval from the ethics committee, Approval Number NKBBN/242–477/2014). Reference strains of S. aureus ATCC 25923, S. aureus ATCC 33591, S. aureus ATCC 9144, and S. aureus ATCC 12598 were obtained from the American Type Culture Collection. All the strains were stored at − 80 °C in Roti®-Store cryo vials (Carl Roth GmbH, Karlsruhe, Germany) and before the tests were transferred into fresh Mueller–Hinton Medium (BioMaxima, Lublin, Poland) and incubated for 24 h at 37 °C. Subsequently, each bacterial inoculum was seeded on Mueller–Hinton agar plates (BioMaxima) and incubated again for 24 h. The cultures prepared in this way were used in further antimicrobial assays. Minimum inhibitory concentrations (MICs) were determined according to the Clinical and Laboratory Standards Institute recommendations. […] The experiments were conducted on 96-well microtiter plates, with a final volume of 100 μL. Additionally, in the case of daptomycin, the medium was supplemented with Ca^2+ (50 mg/L). Cell densities were adjusted spectrophotometrically (Multiskan™ GO Microplate Spectrophotometer, Thermo Scientific) at 600 nm. The MICs were taken as the lowest drug concentration at which a visible growth of the microorganisms was inhibited. Minimum biofilm eliminating concentrations (MBECs) were determined on 96-well flat-bottomed microtiter polystyrene plates with resazurin (7-hydroxy-3H-phenoxazin-3-one 10-oxide sodium salt) as a cell viability reagent. To do this, the plates were filled with 100 μL of the initial inoculums of bacteria (0.5 × 10^7 CFU/mL) in the Mueller–Hinton broth and incubated for 24 h at 37 °C. […] After 24 h of incubation, 20 μL of resazurin (4 mg/mL) was added to each well and the MBEC values were read. Minimum biofilm inhibitory concentrations (MBICs) were also determined on 96-well flat-bottomed microtiter polystyrene plates as described previously. To do this, 50 μL of the compounds in the concentration range, diluted MHB, were prepared. Subsequently, the 50 μL of the staphylococcal inoculums were added to reach the same density of bacteria as that in the MBEC assay. After 24 h of incubation at 37 °C, the wells were rinsed three times with PBS and the fresh medium (100 μL) with resazurin (0.6 mg/mL) was added. Then, after 1 h of incubation, MBICs were read. […] All experiments were conducted in triplicate.
# (§2) Formation of the biofilm inside the PDMS flow chambers was performed using three peristaltic pumps working simultaneously (LP-pump, Kamush, Lipopharm, Poland) and sterile Tygon® 3350 silicone hoses (2.4 × 0.8 × 0.8 mm) with a length of 30 and 50 cm for inlet and outlet, respectively. Bacterial suspensions were prepared (0.5 × 10^7 CFU/mL) in sterile 50-mL test tubes, which were placed in a heating block at 37 °C. Before experiments, all channels were assessed for tightness and sterilized using a 70% 2-propanol solution (10 min, flow rate 1 mL/min) and rinsed with sterile PBS solution (10 min, flow 0.1 mL/min). The formation of biofilm inside the channels was divided into three stages: (1) adhesion—at this stage S. aureus suspensions were passed through the channels for 4 h at a flow rate of 0.1 mL/min; (2) rinsing—the previously used hoses were replaced with new sterile ones, and the channels were rinsed with sterile PBS solution for 10 min at a flow rate of 0.1 mL/min; (3) biofilm growth—after flushing the channels, the silicone hoses were placed in tubes with MHB medium, which was passed through the channels for 24 h at a flow rate of 0.1 mL/min. All experiments included growth and sterility controls.
# (§3) This assay was conducted also on the S. aureus ATCC 25923 and S. aureus 33,591 (MRSA) strains.
# [2] = test system: S. aureus ATCC 33591 (MRSA); experiment: microbe, parasite or virus in culture
# Description: as §1, §2, §3
# S. aureus ATCC 25923 [3] = experiment: Membrane depolarization DiSC3(5); type: cell-based, Staphylococcus aureus; details: 2 × MIC, DiSC3(5) fluorescence
# Experimental: (§4) Membrane depolarization activities of omiganan and retro-omiganan were evaluated using DiSC3(5) (3,3′-dipropylthiadicarbocyanine iodide; Thermo Fischer Scientific, Invitrogen™). The S. aureus ATCC 25923 and S. aureus ATCC 33591 strains were grown at 37 °C up to a mid-log phase (approx. 4 h) in the Mueller–Hinton broth. The cultures were centrifuged (3500 rpm, 7 min) and washed with a 20 mM glucose solution in HEPES buffer (5 mM, pH 7.2). The cells were resuspended in a 5 mM HEPES buffer supplemented with 20 mM glucose and 100 mM KCl (pH 7.2) to an OD 0.05 at 600 nm. The final concentration of the dye was 0.4 μM. The fluorescence was monitored at 20 °C (λex 620 nm and λem 678 nm) with Fluoroskan Ascent FL (Thermo Fisher Scientific) fluorometer. […] A HEPES solution with glucose was used as a negative control. The measurements were conducted twice to ensure the reproducibility.
# [4] = test system: S. aureus ATCC 33591 (MRSA); experiment: Membrane depolarization DiSC3(5); type: cell-based, Staphylococcus aureus; details: 2 × MIC, DiSC3(5) fluorescence
# Experimental: as §4
# [5] = S. aureus ATCC 33591 (MRSA) biofilm treated under flow with Omiganan (half MBEC) for 24 h
# [6] = S. aureus ATCC 33591 (MRSA) biofilm treated under flow with Omiganan (half MBEC) for 48 h
# [7] = S. aureus ATCC 33591 (MRSA) biofilm treated under flow with Omiganan (half MBEC) for 72 h
# [8] = S. aureus ATCC 33591 (MRSA) biofilm treated under flow with Retro-Omiganan (half MBEC) for 24 h
# [9] = S. aureus ATCC 33591 (MRSA) biofilm treated under flow with Retro-Omiganan (half MBEC) for 48 h
# [10] = S. aureus ATCC 33591 (MRSA) biofilm treated under flow with Retro-Omiganan (half MBEC) for 72 h
# [11] = S. aureus ATCC 33591 (MRSA), time 0 h (baseline, before peptide exposure)
substance,measurement,setting,value
ILRWPWWPWRRK-NH2 [Omiganan],MIC,"S. aureus ATCC 25923 [1]; ATCC 25923, 0 h",16.0 µg/mL
same,MIC,"S. aureus ATCC 25923 [1]; ATCC 25923, 24 h",8.0 µg/mL
same,MIC,"S. aureus ATCC 25923 [1]; ATCC 25923, 48 h",8.0 µg/mL
same,MIC,"S. aureus ATCC 25923 [1]; ATCC 25923, 72 h",8.0 µg/mL
same,MIC,[2]; [5],8.0 µg/mL
same,MIC,[2]; [6],8.0 µg/mL
same,MIC,[2]; [7],8.0 µg/mL
same,MIC,[2]; [8],8.0 µg/mL
same,MIC,[2]; [9],8.0 µg/mL
same,MIC,[2]; [10],8.0 µg/mL
same,MIC,[2]; [11],16.0 µg/mL
same,membrane depolarization,S. aureus ATCC 25923 [3],cause depolarization of S. aureus membranes immediately after the addition
same,membrane depolarization,[4],cause depolarization of S. aureus membranes immediately after the addition
KRRWPWWPWRLI-NH2 [Retro-Omiganan],MIC,"S. aureus ATCC 25923 [1]; S. aureus 25923, time 0 h (baseline, before peptide exposure)",8.0 µg/mL
same,MIC,S. aureus ATCC 25923 [1]; S. aureus 25923 biofilm treated under flow with Omiganan (half MBEC) for 24 h,8.0 µg/mL
same,MIC,S. aureus ATCC 25923 [1]; S. aureus 25923 biofilm treated under flow with Omiganan (half MBEC) for 48 h,8.0 µg/mL
same,MIC,S. aureus ATCC 25923 [1]; S. aureus 25923 biofilm treated under flow with Omiganan (half MBEC) for 72 h,8.0 µg/mL
same,MIC,S. aureus ATCC 25923 [1]; S. aureus 25923 biofilm treated under flow with Retro-Omiganan (half MBEC) for 24 h,8.0 µg/mL
same,MIC,S. aureus ATCC 25923 [1]; S. aureus 25923 biofilm treated under flow with Retro-Omiganan (half MBEC) for 48 h,8.0 µg/mL
same,MIC,S. aureus ATCC 25923 [1]; S. aureus 25923 biofilm treated under flow with Retro-Omiganan (half MBEC) for 72 h,8.0 µg/mL
same,MIC,[2]; [5],8.0 µg/mL
same,MIC,[2]; [6],8.0 µg/mL
same,MIC,[2]; [7],8.0 µg/mL
same,MIC,[2]; [8],8.0 µg/mL
same,MIC,[2]; [9],8.0 µg/mL
same,MIC,[2]; [10],8.0 µg/mL
same,MIC,[2]; [11],16.0 µg/mL
same,membrane depolarization,S. aureus ATCC 25923 [3],cause depolarization of S. aureus membranes immediately after the addition
same,membrane depolarization,[4],cause depolarization of S. aureus membranes immediately after the addition
